Data on two compounds can be found in PMC11940194, “Synthesis, Antiproliferative Activity, and ADME Profiling of Novel Racemic and Optically Pure Aryl-Substituted Purines and Purine Bioisosteres” (Biomolecules, 2025).

Series [1] has as its system MCF-7, CFPAC-1, HT-29, HepG2 tumor cell lines and HFF-1 fibroblasts. The series can be described thus: Antiproliferative activity, whole cell line panel. Format: cell-based, human. The following applies: tested cell lines. Here is the method:
The human ATCC tumor cell lines breast adenocarcinoma (MCF7), colorectal carcinoma (HT-29), pancreatic ductal adenocarcinoma (CFPAC-1), hepatocellular carcinoma (HepG2), and normal skin fibroblasts (HFF) derived from ATCC (American Type Culture Collection) were cultured in Dulbecco’s Modified Eagle Medium (DMEM) or Minimum Essential Medium (MEM) supplemented with 10% fetal bovine serum (FBS), 2 mM L-glutamine, 100 U/mL penicillin, and 100 µg/mL streptomycin (Lonza, Basel, Switzerland) in a humidified atmosphere with 5% CO2 at 37 °C. For the experiment, carcinoma cell lines and normal human cell lines were seeded in 96-well microtiter plates at a density of 3000 cells per well and 5000 cells per well, respectively, depending on the doubling time of the specific cell line. The test substances were then added at fivefold, tenfold dilutions (0.01 to 100 µM), freshly prepared in the growth medium on the day of testing, and incubated for a further 72 h. After 72 h of incubation, the growth rate of the cells was determined using the MTT assay according to the manufacturer’s guidelines. […] The IC50 values were calculated from the dose–response curves using linear regression analysis. The experiment was performed in tetraplicates in two individual experiments.
Newly synthesized compounds were evaluated for their cytotoxic activity in vitro against four human cancer cell lines, including human breast adenocarcinoma (MCF-7), ductal pancreatic adenocarcinoma (CFPAC-1), colorectal carcinoma (HT-29), and hepatocellular carcinoma (HepG2), as well as on non-cancerous skin fibroblasts (HFF-1), to check for non-specific toxicity. Furthermore, 5-Fluorouracil (5-FU) was used as a reference drug. The results are expressed as 50% inhibitory concentration (IC50) values and are listed in Table 2, Table 3, Table 4 and Table 5.

For series [2], the system named is MDCKII-MDR1 cells (P-glycoprotein). The series can be described thus: MDCKII-MDR1 permeability assay. To be noted: permeability class. Format: in vitro ADME, canine cells with over-expressed human MDR1 gene. The method in brief: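 Bidirectional transport across MDCKII cells overexpressing human MDR1, compounds 10 µM (1% DMSO) for 60 min at 37 °C, with and without 2 µM elacridar. Monolayer integrity checked by Lucifer yellow; compound concentrations quantified by LC-MS/MS (MRM).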

Series [3] can be described thus: Hydrolytic stability in aqueous buffer (UV/Vis). Format: physicochemical. To be noted: phosphate buffer/DMSO 99:1, pH 7.4, 1 × 10⁻⁴ mol dm⁻³, UV/Vis spectra over 24 h. The text has this: Solvents and chemicals, including starting purines and purine bioisosters 1–5, as well as para-substituted 2-phenyloxiranes 11–15 and phenacyl bromide 21–25, were purchased from Sigma-Aldrich (St. Louis, MO, USA), Alfa Aesar (Haverhill, MA, USA), and Fisher Scientific International (Pittsburgh, PA, USA). The progress of all reactions was monitored by thin layer chromatography on pre-coated Merck (Darmstadt, Germany) silica gel plates 60F254. The synthesized compounds were purified via column chromatography using Fluka (Buchs, Switzerland) silica gel (0.063−0.2 mm) and the appropriate solvent. All NMR spectra were recorded using a Bruker 300, 400, and 600 MHz NMR spectrometer (Bruker Biospin, Rheinstetten, Germany) in deuterated DMSO solutions, with TMS as the internal standard. The melting points of all newly synthesized compounds were determined using a Koffler (Reichert, Vienna) hot stage microscope. The ^1H (δ/ppm) and ^13C NMR (δ/ppm) spectra of compounds 26a,b–49a,b can be found in the Supporting Information (Figures S1–S48). The purity of all newly synthesized compounds was determined by elemental analysis and the elemental analysis results are within 0.5% of the theoretical values. The UV/Vis absorption spectra of compounds 40a, 45a, and 49b were measured at a concentration of 1 × 10⁻⁴ mol dm⁻³ in phosphate buffer and DMSO (99:1, v/v) at pH 7.4 using a Varian Cary 50 spectrophotometer in double-beam mode at 25 °C.
Selected 6-chloropurine (40a), 4-chloropyrrolo[2,3-d]pyrimidine (45a), and 4-chloroimidazo[4,5-c]pyridine (49b) with significant antiproliferative activity were examined for hydrolytic stability in an aqueous buffer solution.
2. UV/Vis absorption spectra of selected compounds
Figure S49. UV/Vis absorption spectra of compounds 40a (a), 45a (b), and 49b (c) recorded in phosphate buffer with 1% DMSO (99:1, v/v) at pH 7.4 (c = 1 × 10⁻⁴ mol dm⁻³). Spectra were measured immediately after sample preparation and after 24 hours to evaluate spectral stability over time.
(1 picture or pasted object on this page, not shown here)

Molecules are shown by their SMILES. “Also recorded” adds a separate entry of the source.

With `OCC(c1ccc(C(F)(F)F)cc1)n1cc(Cn2ccc3c(Cl)ncnc32)nn1` (stereo not shown) [Compound 45a, 4-Chloro-7-((1-(2-hydroxy-1-(4-(trifluoromethyl)phenyl)ethyl)-1H-1,2,3-triazol-4-yl)methyl)-7H-pyrrolo[2,3-d]pyrimidine], the “antiproliferative activity (in words)” value in series [1] was “submicromolar antiproliferative activity”. Besides, the Permeability result in series [2] is recorded as “good membrane permeability; also recorded: MODERATE”. For the same compound, the hydrolytic stability entry in series [3] is given as “hydrolytically stable”.
`OC(Cn1cc(Cn2cnc3c(Cl)nccc32)nn1)c1ccc(Br)cc1` (stereo not shown) [Compound 49b, 4-Chloro-1-((1-(2-hydroxy-2-(4-bromophenyl)ethyl)-1H-1,2,3-triazol-4-yl)methyl)-1H-imidazo[4,5-c]pyridine]: the hydrolytic stability entry in series [3] is “hydrolytically stable”.
